From patent US4757049A, “Process for using endogenous enkephalins and endorphins to stimulate the immune system of patients with aids” (TNI Pharmaceuticals, Inc., priority 1986, dated 1988)

Tests used:
L1210 tumor cells = test: Survival of BDF1 mice inoculated with 1×10^6 L1210 cells, cis-platin with and without methionine-enkephalin; assay type: in vivo, mouse
Experimental: In order to test for any synergistic effect of using an endogenous enkephalin with a known chemo-therapeutic agent, a study involving the inoculation of groups of mice with massive doses (1×10^6) of L1210 tumor cells was performed in a manner analogous to the previous examples transferred in RPMI 1640 at pH 7.

[1] = system: phenylalanyl-t RNA synthetase; settings: Laidow et al, J.B.C. 255 (1980); cited from earlier work

With N.N.[Cl][Pt][Cl] [Cis-platin, cis-platin] the “Median Day of Death ED50” value (L1210 tumor cells; 1×10^6 cells, cis-platin 2 mg/Kg, Met-enkephalin 30 mg/Kg s.c.) was 10 days, the “dead/tested, cumulative” value (L1210 tumor cells; 1×10^6 cells, cis-platin 2 mg/Kg, Met-enkephalin 30 mg/Kg s.c., day 9) was 3/20 and the “Median Day of Death ED50” value (L1210 tumor cells; 1×10^6 cells, cis-platin 4 mg/Kg, Met-enkephalin 30 mg/Kg s.c.) was 10 days. For the same compound, the “dead/tested, cumulative” value (L1210 tumor cells; 1×10^6 cells, cis-platin 8 mg/Kg single dose, Met-enkephalin 30 mg/Kg s.c., day 9) was 2/20, the “Median Day of Death ED50” value (L1210 tumor cells; 1×10^6 cells, cis-platin 8 mg/Kg, Met-enkephalin 30 mg/Kg s.c.) was 12 days and the “dead/tested, cumulative” value (L1210 tumor cells; cis-platin 2 mg/Kg, Met-enkephalin 30 mg/Kg s.c., day 10) was 13/20. The “dead/tested, cumulative” value (L1210 tumor cells; cis-platin 2 mg/Kg, Met-enkephalin 30 mg/Kg s.c., day 11) was 14/20, the “dead/tested, cumulative” value (L1210 tumor cells; cis-platin 2 mg/Kg, Met-enkephalin 30 mg/Kg s.c., day 12) was 15/20 and the “dead/tested, cumulative” value (L1210 tumor cells; cis-platin 2 mg/Kg, Met-enkephalin 30 mg/Kg s.c., day 13) was 17/20. For the same compound, the “dead/tested, cumulative” value (L1210 tumor cells; cis-platin 2 mg/Kg, Met-enkephalin 30 mg/Kg s.c., day 14) was 19/20, the “dead/tested, cumulative” value (L1210 tumor cells; cis-platin 4 mg/Kg, Met-enkephalin 30 mg/Kg s.c., day 11) was 10/20 and the “dead/tested, cumulative” value (L1210 tumor cells; cis-platin 4 mg/Kg, Met-enkephalin 30 mg/Kg s.c., day 12) was 15/20. The “dead/tested, cumulative” value (L1210 tumor cells; cis-platin 4 mg/Kg, Met-enkephalin 30 mg/Kg s.c., day 13) was 19/20, the “dead/tested, cumulative” value (L1210 tumor cells; cis-platin 4 mg/Kg, Met-enkephalin 30 mg/Kg s.c., day 15) was 20/20 and the “dead/tested, cumulative” value (L1210 tumor cells; cis-platin 8 mg/Kg, Met-enkephalin 30 mg/Kg s.c., day 12) was 4/20. For the same compound, the “dead/tested, cumulative” value (L1210 tumor cells; cis-platin 8 mg/Kg, Met-enkephalin 30 mg/Kg s.c., day 13) was 7/20, the “dead/tested, cumulative” value (L1210 tumor cells; cis-platin 8 mg/Kg, Met-enkephalin 30 mg/Kg s.c., day 14) was 12/20 and the “dead/tested, cumulative” value (L1210 tumor cells; cis-platin 8 mg/Kg, Met-enkephalin 30 mg/Kg s.c., day 15) was 16/20. The “dead/tested, cumulative” value (L1210 tumor cells; cis-platin 8 mg/Kg, Met-enkephalin 30 mg/Kg s.c., day 16) was 18/20, the “dead/tested, cumulative” value (L1210 tumor cells; cis-platin 8 mg/Kg, day 18) was 19/20 and the “dead/tested, cumulative” value (L1210 tumor cells; cis-platin 8 mg/Kg, day 20) was 20/20.
For beta-endorphin, the “effect on phenylalanyl-t RNA synthetase” value [1] is listed as “inhibit”.
